melting point [°C]	SMILES
194	CCOC(=O)[C@H](Cc1ccc(NC(=O)c2c(Cl)cncc2Cl)cc1)NC1=CC(=O)C12CCCCC2 [Example 1, Ethyl 2(S)-[(3-oxospiro[3.5]non-1-en-1-yl)amino]-3-{4-[(3,5-dichloroisonicotinoyl)amino]phenyl}propanoate]
112	CCOC(=O)[C@H](Cc1ccc(Nc2nccc3ccncc23)cc1)NC1=CC(=O)C12CCOCC2 [Example 9, Ethyl 3-[4-([2,7]naphthyridin-1-ylamino)phenyl]-2(S)-[(3-oxo-7-oxa-spiro[3.5]non-1-en-1-yl)amino]propanoate]
221	CCOC(=O)[C@H](Cc1ccc(Nc2nccc3ccncc23)cc1)NC1=C(SC(C)C)C(=O)C12CCOCC2 [Example 10, Ethyl 2(S)-[(2-isopropylsulfanyl-3-oxo-7-oxa-spiro[3.5]non-1-en-1-yl)amino]-3-[4-([2,7]naphthyridin-1-ylamino)phenyl]propanoate]
